In US9650395B2, “Antibacterial compounds and methods for use” (PTC Therapeutics, Inc., priority 2011, dated 2017):
≈ marks a conversion by molar mass, not a printed value.

Assays:
[1] = test system: super sensitive Gram-negative Escherichia coli (E. coli) BAS849; test: Antibacterial activity, microbroth dilution MIC, E. coli BAS849; type: cell-based; settings: Escherichia coli; E. coli BAS849, microbroth dilution; read-out: MIC, BAS849
[2] = test system: control Gram-negative E. coli 25922 strain; test: Antibacterial activity, microbroth dilution MIC, E. coli 25922; type: cell-based, Escherichia coli; settings: Escherichia coli; E. coli 25922, microbroth dilution; read-out: MIC, 25922
[3] = test system: Gram-positive Staphylococcus aureus (S. aureus) 29213; test: Antibacterial activity, microbroth dilution MIC, S. aureus 29213; type: cell-based; settings: Staphylococcus aureus; S. aureus 29213, microbroth dilution; read-out: MIC, 29213
[4] = test system: quinolone resistant E. coli LZ3111; test: Antibacterial activity, MIC, quinolone resistant E. coli LZ3111; type: cell-based, Escherichia coli; settings: Escherichia coli, read-out: MIC, LZ3111
Text: (§1) The antibacterial activity from a microbroth dilution method may be presented as the minimum inhibitory concentration (MIC in […]). The MIC value is the lowest concentration of a drug which prevents macroscopically visible bacterial growth under test conditions.
Mutations in these regions are known to confer a high level resistance to the quinolone class of antibiotics.

[5] = test system: Acinetobacter baumannii (A. baumannii) BAA747; test: Antibacterial activity, MIC, A. baumannii BAA747; type: cell-based; settings: Acinetobacter baumannii; A. baumannii BAA747; read-out: MIC BAA747
[6] = test system: Klebsiella pneumoniae (K. pneumoniae) 35657; test: Antibacterial activity, MIC, K. pneumoniae 35657; type: cell-based; settings: Klebsiella pneumoniae
[7] = test system: resistant A. baumannii MXX2240 (MDR clinical isolate); test: Antibacterial activity, MIC, resistant A. baumannii MXX2240; type: cell-based, Acinetobacter baumannii; settings: Acinetobacter baumannii, resistant A. baumannii MMX2240, MDR clinical isolate; read-out: MIC MMX2240
[8] = test system: resistant K. pneumoniae MXX1232 (MDR clinical isolate); test: Antibacterial activity, MIC, resistant K. pneumoniae MXX1232; type: cell-based, Klebsiella pneumoniae; settings: Klebsiella pneumoniae; resistant K. pneumoniae MMX1232, MDR clinical isolate; read-out: MIC MMX1232
[9] = test system: Pseudomonas aeruginosa (P. aeruginosa) 27853; test: Antibacterial activity, MIC, P. aeruginosa 27853; type: cell-based; settings: Pseudomonas aeruginosa, P. aeruginosa 27853; read-out: MIC 27853
Text: as §1
Antibacterial activity of test compounds against the Gram-negative bacterium Pseudomonas aeruginosa (P. aeruginosa) 27853 is shown in Table 5.

| SMILES | MIC [1] [µg/mL] | MIC [2] [µg/mL] | MIC [3] [µg/mL] | MIC [4] [µg/mL] | MIC [5] [µg/mL] | MIC [6] [µg/mL] | MIC [7] [µg/mL] | MIC [8] [µg/mL] | MIC [9] [µg/mL] |
| --- | --- | --- | --- | --- | --- | --- | --- | --- | --- |
| CN(C)c1ccc(-c2[nH]c(=O)c(C(=O)O)c(O)c2CC=O)cc1 [Cpd 327, 6-(4-(dimethylamino)phenyl)-4-hydroxy-2-oxo-5-(2-oxoethyl)-1,2-dihydropyridine-3-carboxylic acid] | 3.5 to 12.5 (≈ 11.1 to 39.5 µM) | 12.5 to 150 (≈ 39.5 to 474 µM) | 12.5 to 150 (≈ 39.5 to 474 µM) | 12.5 to 150 (≈ 39.5 to 474 µM) | 12.5 to 150 (≈ 39.5 to 474 µM) | 12.5 to 150 (≈ 39.5 to 474 µM) | 12.5 to 150 (≈ 39.5 to 474 µM) | 12.5 to 150 (≈ 39.5 to 474 µM) | 12.5 to 150 (≈ 39.5 to 474 µM) |
| CN(C)c1ccc(-c2[nH]c(=O)c(C(=O)O)c(O)c2CCO)cc1 [Cpd 328, 6-(4-(dimethylamino)phenyl)-4-hydroxy-5-(2-hydroxyethyl)-2-oxo-1,2-dihydropyridine-3-carboxylic acid] | < 1 | 3.5 to 12.5 (≈ 11 to 39.3 µM) | 12.5 to 150 (≈ 39.3 to 471 µM) | 3.5 to 12.5 (≈ 11 to 39.3 µM) | 12.5 to 150 (≈ 39.3 to 471 µM) | 3.5 to 12.5 (≈ 11 to 39.3 µM) | 3.5 to 12.5 (≈ 11 to 39.3 µM) | 12.5 to 150 (≈ 39.3 to 471 µM) | 12.5 to 150 (≈ 39.3 to 471 µM) |
| CN(C)c1ccc(-c2[nH]c(=O)c(C(=O)O)c(O)c2CC(O)CO)cc1 (stereo not drawn) [Cpd 329, 5-(2,3-dihydroxypropyl)-6-(4-(dimethylamino)phenyl)-4-hydroxy-2-oxo-1,2-dihydropyridine-3-carboxylic acid] | 12.5 to 150 (≈ 35.9 to 431 µM) | 12.5 to 150 (≈ 35.9 to 431 µM) | 12.5 to 150 (≈ 35.9 to 431 µM) | 3.5 to 12.5 (≈ 10 to 35.9 µM) | 12.5 to 150 (≈ 35.9 to 431 µM) | 12.5 to 150 (≈ 35.9 to 431 µM) | 12.5 to 150 (≈ 35.9 to 431 µM) | 12.5 to 150 (≈ 35.9 to 431 µM) | 12.5 to 150 (≈ 35.9 to 431 µM) |
| C/C=C/c1c(-c2ccc(N(C)C)cc2)[nH]c(=O)c(C(=O)O)c1O [Cpd 330, (E)-6-(4-(dimethylamino)phenyl)-4-hydroxy-2-oxo-5-(prop-1-enyl)-1,2-dihydropyridine-3-carboxylic acid] | 1 to 3.5 (≈ 3.18 to 11.1 µM) | 12.5 to 150 (≈ 39.8 to 477 µM) | 12.5 to 150 (≈ 39.8 to 477 µM) | 12.5 to 150 (≈ 39.8 to 477 µM) | 12.5 to 150 (≈ 39.8 to 477 µM) | 12.5 to 150 (≈ 39.8 to 477 µM) | 12.5 to 150 (≈ 39.8 to 477 µM) | 12.5 to 150 (≈ 39.8 to 477 µM) | 12.5 to 150 (≈ 39.8 to 477 µM) |
| CN(C)c1ccc(-c2[nH]c(=O)c(C(=O)O)c(O)c2CO)cc1 [Cpd 331, 6-(4-(dimethylamino)phenyl)-4-hydroxy-5-(hydroxymethyl)-2-oxo-1,2-dihydropyridine-3-carboxylic acid] | 1 to 3.5 (≈ 3.29 to 11.5 µM) | 12.5 to 150 (≈ 41.1 to 493 µM) | 12.5 to 150 (≈ 41.1 to 493 µM) | 3.5 to 12.5 (≈ 11.5 to 41.1 µM) | 12.5 to 150 (≈ 41.1 to 493 µM) | 12.5 to 150 (≈ 41.1 to 493 µM) | 12.5 to 150 (≈ 41.1 to 493 µM) | 12.5 to 150 (≈ 41.1 to 493 µM) | 12.5 to 150 (≈ 41.1 to 493 µM) |
| COCc1c(-c2ccc(N(C)C)cc2)[nH]c(=O)c(C(=O)O)c1O [Cpd 332, 6-(4-(dimethylamino)phenyl)-4-hydroxy-5-(methoxymethyl)-2-oxo-1,2-dihydropyridine-3-carboxylic acid] | 12.5 to 150 (≈ 39.3 to 471 µM) | 12.5 to 150 (≈ 39.3 to 471 µM) | 12.5 to 150 (≈ 39.3 to 471 µM) | 12.5 to 150 (≈ 39.3 to 471 µM) | 12.5 to 150 (≈ 39.3 to 471 µM) | 12.5 to 150 (≈ 39.3 to 471 µM) | 12.5 to 150 (≈ 39.3 to 471 µM) | 12.5 to 150 (≈ 39.3 to 471 µM) | 12.5 to 150 (≈ 39.3 to 471 µM) |
| CC#Cc1c(-c2ccc(N(C)C)cc2)[nH]c(=O)c(C(=O)O)c1O [Cpd 333, 6-(4-(dimethylamino)phenyl)-4-hydroxy-2-oxo-5-(prop-1-ynyl)-1,2-dihydropyridine-3-carboxylic acid] | 1 to 3.5 (≈ 3.2 to 11.2 µM) | 12.5 to 150 (≈ 40 to 480 µM) | 12.5 to 150 (≈ 40 to 480 µM) | 12.5 to 150 (≈ 40 to 480 µM) | 12.5 to 150 (≈ 40 to 480 µM) | 12.5 to 150 (≈ 40 to 480 µM) | 12.5 to 150 (≈ 40 to 480 µM) | 12.5 to 150 (≈ 40 to 480 µM) | 12.5 to 150 (≈ 40 to 480 µM) |
| CCc1c(-c2ccc(O)cc2)[nH]c(=O)c(C(=O)O)c1O [Cpd 334, 5-ethyl-4-hydroxy-6-(4-hydroxyphenyl)-2-oxo-1,2-dihydropyridine-3-carboxylic acid] | 3.5 to 12.5 (≈ 12.7 to 45.4 µM) | 12.5 to 150 (≈ 45.4 to 545 µM) | 12.5 to 150 (≈ 45.4 to 545 µM) | 12.5 to 150 (≈ 45.4 to 545 µM) | 12.5 to 150 (≈ 45.4 to 545 µM) | 12.5 to 150 (≈ 45.4 to 545 µM) | 12.5 to 150 (≈ 45.4 to 545 µM) | 12.5 to 150 (≈ 45.4 to 545 µM) | 12.5 to 150 (≈ 45.4 to 545 µM) |
| CCc1c(-c2ccc(N3CCC(N(C)C)C3)nc2)[nH]c(=O)c(C(=O)O)c1O (stereo not drawn) [Cpd 335, 6-(6-(3-(dimethylamino)pyrrolidin-1-yl)pyridin-3-yl)-5-ethyl-4-hydroxy-2-oxo-1,2-dihydropyridine-3-carboxylic acid] | 3.5 to 12.5 (≈ 9.4 to 33.6 µM) | 12.5 to 150 (≈ 33.6 to 403 µM) | 12.5 to 150 (≈ 33.6 to 403 µM) | < 1 | 12.5 to 150 (≈ 33.6 to 403 µM) | 12.5 to 150 (≈ 33.6 to 403 µM) | 12.5 to 150 (≈ 33.6 to 403 µM) | 12.5 to 150 (≈ 33.6 to 403 µM) | 12.5 to 150 (≈ 33.6 to 403 µM) |
